Results reported in patent publication US11860169B2, “Method of treating and prognosing scoliotic patient subgroups” (Chu Sainte-Justine, priority 2013, dated 2024).
“Also recorded” adds a separate entry of the source.

Legend:
[1] = system: Gi-mediated cell signaling; assay: Gi-mediated cellular response measured by cellular impedance (CellKey system) after siRNA knockdown in osteoblasts; type: cell-based; settings: for Effect of OPN knock down on Gi-mediated transduction: 48 h post transfection; for Effect of siRNA on OPN-dependent change of Gi-mediated cell signaling: in presence of OPN
Procedure: Gi-mediated cellular response in the presence siRNAs against rOPN was measured by cellular impedance using the CellKey™ system (Akoume et al., 2010; and Akoume et al., 2013 (J. Vis. Exp.)) in functional groups FG1, FG2 and FG3;
(§1) CD44 activity (A) or expression (B) was inhibited in osteoblasts from control, FG1, FG2 and FG3 patients and the effect on OPN-dependent inhibition of Gi-mediated cell signaling was monitored using the CellKey™ system following stimulation with LPA.
SiRNAs against integrins β1, β3 and β5 reversed the effect of OPN on Gi-mediated response while blockade of CD44 further potentiated the effect of OPN.
(§2) The variation in Gi-mediated cell signaling in response to OPN in each functional group (FG1, FG2 and FG3) was studied. FIGS. 20 and 21 show the response to OPN (increasing doses) on osteoblasts isolated from patients classified into functional groups FG1, FG2 and FG3. […] Furthermore, MC3T3-E1 cells were used to check the effect of the knockdown of OPN and its receptors. MC3T3-E1 osteoblasts cells were transiently transfected in serum-free medium, using Lipofectamine™ RNAiMAX reagent (Invitrogen) according to the manufacturers instructions and functional experiments were performed 48 h post transfection.
MC3T3-E1 cells were also used to check the effect of the knockdown of OPN's receptors by RNAi. Experimental conditions were as described for Example 5. The sequence of RNA oligonucleotides used for the knockdowns are: integrin β1 (CCU MG UCA GCA GUA GGA ACA UUA U (SEQ ID NO: 15)), integrin β3 (CCUCCAGCUCAUUGUUGAUGCUUAU (SEQ ID NO: 16)); integrin β5 ([…], HSS-105572, Life technologies (SEQ ID NO: 17), […], HSS-105573, Life technologies (SEQ ID NO: 18); and […], HSS-179984, life technologies, (SEQ ID NO: 19)) and CD44 (GM CM GGA GUC GUC AGA MC UCC A (SEQ ID NO: 20)).

[2] = system: Gi-mediated cell signaling; assay: Gi-mediated cellular response measured by cellular impedance (CellKey system) in osteoblasts treated with OPN, HA or antibodies; type: cell-based, human; settings: LPA stimulation
Procedure: Gi-mediated cellular response in the presence of increasing amounts of rOPN was measured by cellular impedance using the CellKey™ system (Akoume et al., 2010; and Akoume et al., 2013 (J. Vis. Exp.)) in functional groups FG1, FG2 and FG3;
Osteoblasts from healthy subjects and AIS patients of each endophenotype (FG1, FG2 and FG3) were treated with vehicle, OPN (500 ng/ml) or HA (10 μM). The Gi-mediated cellular response in the presence of increasing amounts of LPA was measured by cellular impedance using the CellKey™ system;
as §1
Antibodies against integrins β1, β3 and β5 reverse the effect of OPN on Gi-mediated response in FG2 and FG3 subjects only, while blockade of CD44 further potentiates the effect of OPN.
as §2

[3] = osteoblasts from FG1 AIS subjects, increasing rOPN, or OPN 500 ng/ml or HA 10 μM
[4] = osteoblasts from FG2 AIS subjects, increasing rOPN, or OPN 500 ng/ml or HA 10 μM
[5] = osteoblasts from FG3 AIS subjects, increasing rOPN, or OPN 500 ng/ml or HA 10 μM
[6] = osteoblasts from control (healthy) subjects, OPN 500 ng/ml or HA 10 μM
[7] = osteoblasts from control subjects

Substance | Effect on Gi-mediated cellular response [2, 3] | Effect on Gi-mediated cellular response [2, 4] | Effect on Gi-mediated cellular response [2, 5] | Effect on Gi-mediated cellular response [2, 6] | Effect of siRNA on OPN-dependent change of Gi-mediated cell signaling ([1]; osteoblasts from FG1 subjects) | Effect of siRNA on OPN-dependent change of Gi-mediated cell signaling ([1]; osteoblasts from FG2 subjects) | Effect of siRNA on OPN-dependent change of Gi-mediated cell signaling ([1]; osteoblasts from FG3 subjects) | Effect of siRNA on OPN-dependent change of Gi-mediated cell signaling [1, 7] | other results
OPN siRNA: siRNA for knock down of OPN expression: CCA CAG CCA CM GCA GUC CAG AUU A (CCACAGCCACAAGCAGUCCAGAUUA; listed as RNA, chemistry not fully specified) | – | – | – | – | – | – | – | – | Effect of OPN knock down on Gi-mediated transduction ([1]; FG1): tends to decrease the response; Effect of OPN knock down on Gi-mediated transduction ([1]; FG2): increases Gi-mediated transduction; Effect of OPN knock down on Gi-mediated transduction ([1]; FG3): increases Gi-mediated transduction
OPN: osteopontin, encoded by SPP1 (Gene ID 6696); recombinant rOPN added to osteoblasts | enhances Gi signaling | aggravates the impairment | aggravates the impairment | decreases the Gi-mediated response | – | – | – | – | –
Hyaluronic acid [HA] | increases the Gi-mediated cellular response | decreases the Gi-mediated response | decreases the Gi-mediated response | decreases the Gi-mediated response | – | – | – | – | –
siRNA against integrin β3: RNA oligonucleotide for integrin β3 knockdown: CCUCCAGCUCAUUGUUGAUGCUUAU (CCUCCAGCUCAUUGUUGAUGCUUAU; listed as RNA, chemistry not fully specified) | – | – | – | – | reduced (blocked) the increase in Gi-mediated response induced by OPN | can be reversed | can be reversed | can be reversed | –
siRNA against CD44: RNA oligonucleotide for CD44 knockdown: GM CM GGA GUC GUC AGA MC UCC A (GAACAAGGAGUCGUCAGAAACUCCA; listed as RNA, chemistry not fully specified) | – | – | – | – | further increased Gi-mediated cell signaling | further decreased Gi-mediated cell signaling; also recorded: further reduced Gi-mediated signaling | further decreased Gi-mediated cell signaling; also recorded: further reduced Gi-mediated signaling | further decreased Gi-mediated cell signaling; also recorded: further reduced Gi-mediated signaling | –
siRNA against integrin β1: RNA oligonucleotide for integrin β1 knockdown: CCU MG UCA GCA GUA GGA ACA UUA U (CCUAAGUCAGCAGUAGGAACAUUAU; listed as RNA, chemistry not fully specified) | – | – | – | – | reduced (blocked) the increase in Gi-mediated response induced by OPN | can be reversed | can be reversed | can be reversed | –
